According to US10383848B2, “Indole-based therapeutics” (Creighton University, priority 2016, dated 2019):
≈ marks a conversion by molar mass, not a printed value. Like-named read-outs stand apart in the source and are kept apart here.

Legend:
M. abscessus ATCC 19977 = test: MIC, resazurin microtiter assay; type: cell-based; conditions: Mueller Hinton II; for MIC: Mycobacteroides abscessus, ATCC19977, read-out: MIC M. abscessus ATCC 19977
M. massiliense CRM 0019 = test: MIC, resazurin microtiter assay; type: cell-based; conditions: for MIC: Mycobacteroides abscessus, CRM0019, Mueller Hinton II, read-out: MIC M. massiliense CRM 0019
[1] = tested on: M. massiliense CIP 108297; test: MIC, resazurin microtiter assay; type: cell-based; conditions: for MIC: Mycobacteroides abscessus, CIP108297, Mueller Hinton II, read-out: MIC M. massiliense CIP 108297
M. bolletii ATCC 14472 = test: MIC, resazurin microtiter assay; type: cell-based; conditions: for MIC: Mycobacteroides abscessus, ATCC14472, Mueller Hinton II, read-out: MIC M. bolletii ATCC 14472
[2] = tested on: M. tuberculosis H37Rv mc^26206; test: microbe, parasite or virus in culture; type: cell-based; conditions: for MIC: Mycobacterium tuberculosis, H37RV, read-out: MIC M. tb H37 Rv (mc2-6206)
M. chelonae ATCC 35752 = test: MIC, resazurin microtiter assay; type: cell-based; conditions: for MIC: Mycobacteroides chelonae, ATCC35752, Mueller Hinton II, read-out: MIC M. chelonae ATCC 35752
M. avium 104 = test: MIC, resazurin microtiter assay; type: cell-based; conditions: Mycobacterium avium, 104; Mueller Hinton II; read-out: MIC M. avium 104
M. abscessus DCI #21 = test: MIC, resazurin microtiter assay; type: cell-based; conditions: Mueller Hinton II; for MIC: Mycobacteroides abscessus, read-out: MIC M. abscessus DCI #21
M. smegmatis mc^2155 = test: MIC, resazurin microtiter assay; type: cell-based; conditions: for MIC: Mycolicibacterium smegmatis, MC^2155, 7H9-ADC-0.05% Tween 80, read-out: MIC M. smeg. mc^2155
M. xenopi WT = test: MIC, resazurin microtiter assay; type: cell-based; conditions: Mycobacterium xenopi, Mueller Hinton II; read-out: MIC M. xenopi WT
M. intracellulare 1956 = test: MIC, resazurin microtiter assay; type: cell-based; conditions: Mueller Hinton II; read-out: MIC M. avium Intracellulare 1956
S. aureus ATCC25923 = test: MIC, resazurin microtiter assay; type: cell-based; conditions: Staphylococcus aureus, ATCC25923; Mueller Hinton II; read-out: MIC S. aureus ATCC25923
P. aeruginosa PAO-1 = test: MIC, resazurin microtiter assay; type: cell-based, Pseudomonas aeruginosa; conditions: Mueller Hinton II
mycobacteria = test: organism not typed; type: cell-based; conditions: lowest concentration reducing CFU by 90% relative to the inoculum; strain not stated; read-out: MBC90
M. abscessus 103 [3] = test: MIC/MBC by microbroth dilution (MH or 7H9 broth); type: cell-based, M. abscessus subsp. bolletii; conditions: Mycobacteroides abscessus, 103; for MBC: 7H9 broth, read-out: MBC99 M. abscessus subsp. bolletii 103
M. abscessus 1513 = test: MIC/MBC by microbroth dilution (MH or 7H9 broth); type: cell-based, M. abscessus subsp. abscessus; conditions: Mycobacteroides abscessus, 1513; for MBC: 7H9 broth, read-out: MBC99 M. abscessus subsp. abscessus 1513
M. abscessus 103 [4] = test: Acute SCID mouse infection efficacy model; conditions: SCID mice i.v. infected with M. abscessus 103; compounds 300 mg/kg PO in 20% cyclodextrin, AMI 150 mg/kg SQ, once daily 8 days
[5] = read-out: MIC M. abscessus 103, 7H9 Broth
[6] = read-out: MIC M. abscessus 103, MH Broth
[7] = read-out: MIC M. abscessus 1513, 7H9 Broth
[8] = read-out: MIC M. abscessus 1513, MH Broth

Row | Compound | MIC (M. abscessus ATCC 19977) | MIC (M. massiliense CRM 0019) | MIC [1] | MIC (M. bolletii ATCC 14472) | MIC [2] | MIC (M. chelonae ATCC 35752) | MIC (M. avium 104) | MIC (M. abscessus DCI #21) | MIC (M. smegmatis mc^2155) | MIC (M. xenopi WT) | MIC (M. intracellulare 1956) | also measured
1 | O=C(NC1C2CC3CC(C2)CC1C3)c1cc2ccccc2[nH]1 (centres unmarked) [Compound 9, N-(2-adamantyl)-1H-indole-2-carboxamide] | > 32 µg/mL | 32 µg/mL (≈ 109 µM) | > 32 µg/mL | 32 µg/mL (≈ 109 µM) | 0.39 µg/mL (≈ 1.32 µM) | > 32 µg/mL | > 32 µg/mL | > 32 µg/mL | > 25 µg/mL | 2 µg/mL (≈ 6.79 µM) | > 32 µg/mL | 
2 | CC1CCC(NC(=O)c2cc3ccccc3[nH]2)CC1 (centres unmarked) [Compound 15] |  |  |  |  |  |  | > 32 µg/mL |  |  | 16 µg/mL (≈ 62.4 µM) | > 32 µg/mL | MIC M. abscessus ATCC 19977 (M. abscessus ATCC 19977): >32 µg/mL; MIC M. massiliense CRM 0019 (M. massiliense CRM 0019; Mueller Hinton II): 16 µg/mL (≈ 62.4 µM); MIC M. massiliense CIP 108297 ([1]; Mueller Hinton II): 16 µg/mL (≈ 62.4 µM); MIC M. bolletii ATCC 14472 (M. bolletii ATCC 14472; Mueller Hinton II): 16 µg/mL (≈ 62.4 µM); MIC M. tb H37 Rv (mc2-6206) [2]: 5 µg/mL (≈ 19.5 µM); MIC M. chelonae ATCC 35752 (M. chelonae ATCC 35752; Mueller Hinton II): 16 µg/mL (≈ 62.4 µM); MIC M. abscessus DCI #21 (M. abscessus DCI #21): >32 µg/mL; MIC M. smeg. mc^2155 (M. smegmatis mc^2155; 7H9-ADC-0.05% Tween 80): 12.5 µg/mL (≈ 48.8 µM)
3 | O=C(NCC12CC3CC(CC(C3)C1)C2)c1cc2ccccc2[nH]1 [Compound 8, N-(1-(1-adamantyl)methyl)-1H-indole-2-carboxamide] | 2 µg/mL (≈ 6.48 µM) | > 32 µg/mL | 2 µg/mL (≈ 6.48 µM) | 2 µg/mL (≈ 6.48 µM) | > 5 µg/mL | 1 µg/mL (≈ 3.24 µM) | > 32 µg/mL | 2 µg/mL (≈ 6.48 µM) | > 20 µg/mL | 4 µg/mL (≈ 13 µM) | > 32 µg/mL | 
4 | O=C(NC1CCCCCCC1)c1cc2ccccc2[nH]1 [Compound 10, N-cyclooctyl-1H-indole-2-carboxamide] | > 32 µg/mL | 32 µg/mL (≈ 118 µM) | > 32 µg/mL | 32 µg/mL (≈ 118 µM) | 0.39 µg/mL (≈ 1.44 µM) | > 32 µg/mL | > 32 µg/mL | > 32 µg/mL | 25 µg/mL (≈ 92.5 µM) | 2 µg/mL (≈ 7.4 µM) | > 32 µg/mL | 
5 | Cc1cc(C)c2cc(C(=O)NC3CCCC3)[nH]c2c1 [Compound 28, N-cyclopentyl-4,6-dimethyl-1H-indole-2-carboxamide] | 4 µg/mL (≈ 15.6 µM) | 8 µg/mL (≈ 31.2 µM) | 8 µg/mL (≈ 31.2 µM) | 2 µg/mL (≈ 7.8 µM) | 2.5 µg/mL (≈ 9.75 µM) | 2 µg/mL (≈ 7.8 µM) | > 32 µg/mL | 4 µg/mL (≈ 15.6 µM) | 5 µg/mL (≈ 19.5 µM) | 8 to 16 µg/mL (≈ 31.2 to 62.4 µM) | > 32 µg/mL | 
6 | Cc1cc(C)c2cc(C(=O)NC3CCCCCC3)[nH]c2c1 [Compound 26, N-cycloheptyl-4,6-dimethyl-1H-indole-2-carboxamide] | ≤ 0.06 µg/mL | ≤ 0.06 µg/mL | ≤ 0.06 µg/mL | ≤ 0.06 µg/mL |  | ≤ 0.06 µg/mL | 2 µg/mL (≈ 7.03 µM) | ≤ 0.06 µg/mL | 0.625 µg/mL (≈ 2.2 µM) | 0.06 to 0.12 µg/mL (≈ 0.211 to 0.422 µM) | 4 µg/mL (≈ 14.1 µM) | MIC (S. aureus ATCC25923): > 160 µg/mL; MIC P. aeruginosa PAO-1 (P. aeruginosa PAO-1): inactive; MIC (P. aeruginosa PAO-1; Pseudomonas aeruginosa, PAO1, read-out: MIC P. aeruginosa PAO-1): > 160 µg/mL; MBC (mycobacteria): 0.015 µg/mL (≈ 0.0527 µM)
7 | CC[C@H]1OC(=O)[C@H](C)[C@@H](O[C@H]2C[C@@](C)(OC)[C@@H](O)[C@H](C)O2)[C@H](C)[C@@H](O[C@@H]2O[C@H](C)C[C@H](N(C)C)[C@H]2O)[C@](C)(OC)C[C@@H](C)C(=O)[C@H](C)[C@@H](O)[C@]1(C)O [clarithromycin, reference compound] |  |  |  |  |  |  |  |  |  |  |  | MBC (M. abscessus 103 [3]): > 64 µg/mL; MIC (M. abscessus 103 [3]; [5]): 16 µg/mL (≈ 21.4 µM); MIC (M. abscessus 103 [3]; [6]): 4 µg/mL (≈ 5.35 µM); MBC (M. abscessus 1513): > 64 µg/mL; MIC (M. abscessus 1513; [7]): > 64 µg/mL; MIC (M. abscessus 1513; [8]): > 64 µg/mL
8 | CCC12CC3CC(C1)CC(NC(=O)c1cc4ccccc4[nH]1)(C3)C2 [Compound 6, N-(3-ethyl-1-adamantyl)-1H-indole-2-carboxamide] | > 32 µg/mL | > 32 µg/mL | > 32 µg/mL | > 32 µg/mL | 1.25 µg/mL (≈ 3.88 µM) | > 32 µg/mL | > 32 µg/mL | > 32 µg/mL | > 20 µg/mL | 1 to 2 µg/mL (≈ 3.1 to 6.2 µM) | > 32 µg/mL | 
9 | NCC[C@H](O)C(=O)N[C@@H]1C[C@H](N)[C@@H](O[C@H]2O[C@H](CN)[C@@H](O)[C@H](O)[C@H]2O)[C@H](O)[C@H]1O[C@H]1O[C@H](CO)[C@@H](O)[C@H](N)[C@H]1O [amikacin, reference compound] |  |  |  |  |  |  |  |  |  |  |  | log10 CFU liver counts on day 12 (M. abscessus 103 [4]): 4.03±0.62 log10 CFU; log10 CFU lung counts on day 12 (M. abscessus 103 [4]): 3.52±0.22 log10 CFU; log10 CFU spleen counts on day 12 (M. abscessus 103 [4]): 3.12±0.30 log10 CFU; MBC (M. abscessus 103 [3]): > 64 µg/mL; MIC (M. abscessus 103 [3]; [5]): 8 µg/mL (≈ 13.7 µM); MIC (M. abscessus 103 [3]; [6]): 4 µg/mL (≈ 6.83 µM); MBC (M. abscessus 1513): > 64 µg/mL; MIC (M. abscessus 1513; [7]): > 64 µg/mL; MIC (M. abscessus 1513; [8]): > 64 µg/mL
10 | CCCCCCCNC(=O)c1cc2c(C)cc(C)cc2[nH]1 [Compound 32, N-heptyl-4,6-dimethyl-1H-indole-2-carboxamide] | > 32 µg/mL | > 32 µg/mL | > 32 µg/mL | 32 µg/mL (≈ 112 µM) | > 5 µg/mL | > 32 µg/mL | > 32 µg/mL | > 32 µg/mL | 5 µg/mL (≈ 17.5 µM) | > 32 µg/mL | > 32 µg/mL | 
11 | CC(NC(=O)c1cc2ccccc2[nH]1)C12CC3CC(CC(C3)C1)C2 (centres unmarked) [Compound 7, N-(1-(1-adamantyl)ethyl)-1H-indole-2-carboxamide] | 16 µg/mL (≈ 49.6 µM) | 8 µg/mL (≈ 24.8 µM) | 8 µg/mL (≈ 24.8 µM) | 16 µg/mL (≈ 49.6 µM) | > 5 µg/mL | 2 µg/mL (≈ 6.2 µM) | > 32 µg/mL | 16 µg/mL (≈ 49.6 µM) | > 20 µg/mL | 8 µg/mL (≈ 24.8 µM) | 32 µg/mL (≈ 99.2 µM) | 
12 | CCCCCCCCNC(=O)c1cc2c(C)cc(C)cc2[nH]1 [Compound 33, N-octyl-4,6-dimethyl-1H-indole-2-carboxamide] | > 32 µg/mL | > 32 µg/mL | > 32 µg/mL | > 32 µg/mL | > 20 µg/mL | > 32 µg/mL | > 32 µg/mL | > 32 µg/mL | 2.5 to 5 µg/mL (≈ 8.32 to 16.6 µM) | > 32 µg/mL | > 32 µg/mL | 
